{
  "source": "patent US7655420B2",
  "about": "“Methods to increase or decrease bone density” (Celltech R & D, Inc., priority 2002, dated 2010)",
  "key": {"SOST expression [1]": {"tested_on": "SOST expression", "assay": "SOST expression in hMSC cells and primary human osteoblasts treated with growth factors and hormones (RT-PCR)", "assay_type": "cell-based", "details": "72 hrs; for SOST expression, factor alone: hMSC cells (and primary human osteoblasts), RT-PCR; for SOST expression, steroid added in combination with BMP-4 versus BMP-4 alone: hMSC cells, vit D 10^−7M, RA 10^−6M, DEX 10^−7M", "protocol": "(§1) As immature osteoblasts differentiate and become capable of mineralization, they express markers associated with the osteoblast phenotype (type I collagen and parathyroid hormone receptor (PTHr)). These markers were used to ascertain whether differentiation had occurred so that the influence of growth factors and hormones could be correlated with the stage differentiation as well as the level of SOST expression.\n(§2) Human mesenchymal cells and primary human osteoblasts were plated in regular growth media containing 2% FCS at a density of 10,000 cells 1 cm^2. Test reagents (10^−7 M dexamethasone, 10^−6 M retinoic acid, 10 ng/ml TGF-β1, PTH (10^−8 M), 10 or 50 ng/ml IGF-1, 10^−7 M1,25-dihydroxyvitamin D3, and 50 to 300 ng/ml of bone morphogenetic proteins 2, 4 or 6) were added singly or in combination on the following day."}, "gremlin expression": {"tested_on": "gremlin expression", "assay": "gremlin expression in hMSC cells treated with BMPs and steroids (RT-PCR)", "assay_type": "cell-based, human", "details": "72 hrs; for BMP-4 induced gremlin expression, steroid added with BMP-4: BMP-4 100 ng/ml; for gremlin expression, factor alone: RT-PCR", "protocol": "as §1, §2"}, "noggin expression": {"tested_on": "noggin expression", "assay": "noggin expression in hMSC cells treated with BMPs and steroids (RT-PCR)", "assay_type": "cell-based, human", "details": "72 hrs", "protocol": "as §1, §2"}, "SOST expression [2]": {"tested_on": "SOST expression", "assay": "BMP-6 induction of SOST expression in hMSC cells with test compounds (RT-PCR)", "assay_type": "cell-based, human", "details": "for Results (effect on BMP-6 induction of SOST expression): BMP-6, 72 hrs, compound at 1 × 10^−7 M", "protocol": "The previous example illustrates that SOST expression was enhanced by bone morphogenetic proteins and modulated by steroids such as dexamethasone. In this example, human MSC cells were incubated with bone morphogenetic proteins in the presence of various test agents to determine whether other steroids and compounds could affect the BMP-induction of SOST. SOST expression was monitored by reverse transcriptase polymerase chain reaction (RT-PCR).\nHuman mesenchymal cells (hMSCs) were plated in regular growth media containing 2% FCS and treated with BMP-6 either alone or in combination with the test compounds. The cells were harvested 72 hrs later and RNA was prepared for RT-PCR analysis of SOST expression."}, "PTHr expression": {"tested_on": "PTHr expression", "assay": "PTHr expression in hMSC cells treated with factors (RT-PCR)", "assay_type": "cell-based, human", "details": "72 hrs, IGF-1 at 50 ng/ml, DEX 10^−7M", "text": "as §1, with “In this example, the effect of growth factors and hormones on SOST expression in hMSC cells or primary human osteoblasts was observed using RT-PCR. […] As” for “As”\nas §2, with “day. Cultures were continued for 24 to 120 hrs after which the cells were harvested for RNA isolation.” for “day.”"}, "[3]": {"tested_on": "alkaline phosphatase (ALP) activity in hMSC cells", "assay": "alkaline phosphatase activity in differentiating hMSC cells", "assay_type": "cell-based, human", "details": "sclerostin 10 μg/ml and increasing amounts of BMP-6"}, "[4]": {"tested_on": "BMP-6 stimulated alkaline phosphatase activity", "assay": "BMP-6 stimulated alkaline phosphatase activity in mouse mesenchymal C3H10T1/2 cells", "assay_type": "cell-based", "protocol": "C3H10T1/2 cells (ATCC Deposit No. CCL-226) were plated in 96-well dishes at a density of 25,000 cells per well in complete growth medium (DMEM with high glucose and glutamine supplemented with 10% FCS, 1% penicillin/streptomycin, 0.1 mM non-essential amino acids, 1 mM sodium pyruvate, 55 μM β-mercaptoethanol, and 20 mM HEPES, pH 7.3). C3H10T1/2 cells were used in a short-term (72 hr) assay to determine the effects of human sclerostin protein on BMP-induced ALP activity. Partially purified preparations of bacculovirus-expressed sclerostin protein were prepared in sterile PBS using NAP-5 columns prior to use. Sclerostin protein (0 to 50 μg/ml) or an equal volume of Sf9 conditioned media (control) was pre-incubated with 500 ng/ml BMP-6 for 1 hr prior to addition to cells. For comparison, similar incubations were carried out with anti-BMP-6 antibody and noggin. Cells were harvested 72 hrs later for determination of ALP activity.\nTo test the specificity of the sclerostin effect, human sclerostin that was synthesized with a FLAG tag, was pre-incubated for 2 hrs at 4° C. with an anti-FLAG antibody coupled to agarose beads. The mixture was then spun down at 10,000×g for 15 minutes at 4° C. and the supernatant treated as “sclerostin protein” in the above assay."}, "[5]": {"tested_on": "caspase activity in hMSC cells", "assay": "apoptosis of hMSC cells by caspase activity (Homogeneous Caspase ELISA)", "assay_type": "cell-based, human", "details": "hMSC in osteoblast-inducing media, 20 μg/ml sclerostin or other protein, 24 hours", "protocol": "Human mesenchymal (hMSC) cells were plated in Osteoblast-inducing media (Biowhittaker's MSCGM medium supplemented with 100 nM dexamethasone, 50 μg/ml ascorbic acid, and 10 mM β-glycerophosphate) at a density of 10,000 cells/cm^2 in 96-well dishes.\nFor apoptosis assays, cells were treated with sclerostin or commercially available preparations of the BMP antagonists noggin, chordin, gremlin or twisted gastrulation (Tsg) for 24 hours prior to assay for caspase activity. In some experiments, cells were treated for various times with a partially purified preparation of baculovirus-expressed human sclerostin (0 to 30 μg/ml) or an equal volume of a protein preparation purified from Sf9 conditioned media (control) in the absence or presence of Calbiochem's caspase inhibitors. Cells were harvested and processed for apoptosis assays using the Homogeneous Caspase ELISA (Roche) or Cell Death (Histone-Associated DNA Fragmentation, Roche)."}, "[6]": {"tested_on": "alkaline phosphatase (ALP) activity in hMSC cells", "assay": "alkaline phosphatase activity in differentiating hMSC cells", "assay_type": "cell-based, human", "details": "hMSC cells, Osteoblast-Inducing media, 7 days", "protocol": "hMSC cells were plated in 96-well tissue culture dishes at a density of 10,000 cells/cm^2 in Osteoblast-Inducing medium. Partially purified preparations of baculovirus-expressed sclerostin protein were prepared in sterile PBS using NAP-5 columns prior to use. Human sclerostin protein (0 to 30 μg/ml) or an equal volume of Sf9 conditioned media (Control) was added to cultures of hMSC cells at various times after plating (1 day, 8 days, 15 days, or 21 days). The effects of sclerostin on osteoblastic differentiation were assessed by measuring alkaline phosphatase activity (ALP, determined in cell layers using DEAA buffer (Pierce) containing 0.5% NP-40 and 10 mM p-nitrophenylphosphate), synthesis of collagen type I (Prolagen C ELISA), and calcium deposition for mineralization (colorimetric assay of acid lysates of cell layers, Sigma)."}},
  "note": "Entries after “also recorded” stand apart in the source; their conditions may differ.",
  "data": [
    {"molecule": "CC1=C(/C=C/C(C)=C/C=C/C(C)=C/C(=O)O)C(C)(C)CCC1", "note": "[retinoic acid, reference compound]", "values": [
      {"measurement": "SOST expression, factor alone", "setting": "SOST expression [1]", "result": "no effect"}
    ]},
    {"molecule": "C[C@@H]1C[C@H]2[C@@H]3CCC4=CC(=O)C=C[C@]4(C)[C@@]3(F)[C@@H](O)C[C@]2(C)[C@@]1(O)C(=O)CO", "note": "[Dexamethasone, dexamethasone, reference compound]", "values": [
      {"measurement": "BMP-4 induced gremlin expression, steroid added with BMP-4", "setting": "gremlin expression", "result": "diminished"},
      {"measurement": "gremlin expression, factor alone", "setting": "gremlin expression", "result": "decreased"},
      {"measurement": "noggin expression, factor alone", "setting": "noggin expression", "result": "increase"},
      {"measurement": "induction of SOST expression by BMP-6 (BMP-induced SOST expression)", "setting": "SOST expression [2]; 72 hrs, no single concentration stated in the sentence", "result": "blocks"},
      {"measurement": "Results (effect on BMP-6 induction of SOST expression)", "setting": "SOST expression [2]", "result": "blocked; also recorded: Inhibition"},
      {"measurement": "Results (effect on BMP-6 induction of SOST expression)", "setting": "SOST expression [2]; listed as DEX", "result": "blocked"},
      {"measurement": "PTHr expression", "setting": "PTHr expression", "result": "induced"},
      {"measurement": "SOST expression, factor alone", "setting": "SOST expression [1]", "result": "no effect"},
      {"measurement": "SOST expression, steroid added in combination with BMP-4 versus BMP-4 alone", "setting": "SOST expression [1]", "result": "abolished the stimulatory effect"},
      {"measurement": "SOST expression, steroid added in combination with BMP-4 versus BMP-4 alone", "setting": "SOST expression [1]; listed as dexamethasone", "result": "abolished the stimulatory effect; also recorded: significantly suppressed; also recorded: depressed"}
    ]},
    {"molecule": "TGF-β: transforming growth factor-β", "values": [
      {"measurement": "SOST expression, factor alone", "setting": "SOST expression [1]", "result": "no effect"}
    ]},
    {"molecule": "IGF-1: insulin-like growth factor-1", "values": [
      {"measurement": "PTHr expression", "setting": "PTHr expression", "result": "induced"},
      {"measurement": "SOST expression, factor alone", "setting": "SOST expression [1]", "result": "enhanced"}
    ]},
    {"molecule": "C=C1/C(=C\\C=C2/CCC[C@]3(C)[C@@H]([C@H](C)CCCC(C)(C)O)CC[C@@H]23)C[C@@H](O)C[C@@H]1O", "note": "[vitamin D, 1,25-dihydroxyvitamin D3, reference compound]", "values": [
      {"measurement": "BMP-4 induced gremlin expression, steroid added with BMP-4", "setting": "gremlin expression", "result": "did not alter"},
      {"measurement": "gremlin expression, factor alone", "setting": "gremlin expression", "result": "unchanged"},
      {"measurement": "noggin expression, factor alone", "setting": "noggin expression", "result": "increase"},
      {"measurement": "SOST expression, factor alone", "setting": "SOST expression [1]", "result": "no effect"},
      {"measurement": "SOST expression, steroid added in combination with BMP-4 versus BMP-4 alone", "setting": "SOST expression [1]", "result": "enhanced"}
    ]},
    {"molecule": "BMP-4: bone morphogenetic protein 4, purchased from R & D Systems (protein, UniProt P12644 293-408, looked up) Bone morphogenetic protein 4: SPKHHSQRARKKNKNCRRHSLYVDFSDVGWNDWIVAPPGYQAFYCHGDCPFPLADHLNSTNHAIVQTLVNSVNSSIPKACCVPTELSAISMLYLDEYDKVVLKNYQEMVVEGCGCR", "values": [
      {"measurement": "gremlin expression, factor alone", "setting": "gremlin expression", "result": "only modestly increased; also recorded: enhanced"},
      {"measurement": "noggin expression, factor alone", "setting": "noggin expression", "result": "up-regulated; also recorded: enhanced; also recorded: increase"},
      {"measurement": "SOST expression, factor alone", "setting": "SOST expression [1]", "result": "enhanced; also recorded: up-regulated; also recorded: significantly increased"}
    ]},
    {"molecule": "BMP-6: bone morphogenetic protein 6, purchased from R & D Systems (protein) QQSRNRSTQSQDVARVSSASDYNSSELKTACRKHELYVSFQDLGWQDWIIAPKGYAANYCDGECSFPLNAHMNATNHAIVQTLVHLMNPEYVPKPCCAPTKLNAISVLYFDDNSNVILKKYRNMVVRACGCH", "values": [
      {"measurement": "gremlin expression, factor alone", "setting": "gremlin expression", "result": "only modestly increased"},
      {"measurement": "noggin expression, factor alone", "setting": "noggin expression", "result": "up-regulated"},
      {"measurement": "SOST expression, factor alone", "setting": "SOST expression [1]", "result": "enhanced; also recorded: up-regulated"},
      {"measurement": "reversal of the inhibitory effect of sclerostin on alkaline phosphatase", "setting": "[3]", "result": "partially reversed"},
      {"measurement": "ALP activity, effect of BMP-6", "setting": "[4]; 72 hrs", "result": "increased in a dose-dependent manner; also recorded: stimulatory effect"}
    ]},
    {"molecule": "noggin: BMP antagonist protein (mouse noggin), purchased from R & D Systems (protein) QHYLHIRPAPSDNLPLVDLIEHPDPIFDPKEKDLNETLLRSLLGGHYDPGFMATSPPEDRPGGGGGPAGGAEDLAELDQLLRQRPSGAMPSEIKGLEFSEGLAQGKKQRLSKKLRRKLQMWLWSQTFCPVLYAWNDLGSRFWPRYVKVGSCFSKRSCSVPEGMVCKPSKSVHLTVLRWRCQRRGGQRCGWIPIQYPIISECKCSC", "values": [
      {"measurement": "caspase activity", "setting": "[5]", "result": "no increase; also recorded: no significant effect"},
      {"measurement": "ALP activity", "setting": "[6]; protein at 1 μg/ml", "result": "no effect"},
      {"measurement": "ALP activity", "setting": "[6]; protein at 5 μg/ml", "result": "significantly increased"},
      {"measurement": "stimulatory effect of BMP-6 on alkaline phosphatase activity (antagonism)", "setting": "[4]; 500 ng/ml BMP-6, 72 hrs", "result": "antagonized"},
      {"measurement": "IC50, decrease of BMP-6 stimulated alkaline phosphatase activity", "setting": "[4]; pre-incubated with 500 ng/ml BMP-6 for 1 hr, 72 hrs", "result": 0.3, "unit": "µg/mL"}
    ]},
    {"molecule": "PTH: parathyroid hormone (PTH), tested at 10^−8 M (peptide, UniProt P01270 32-115, looked up, Parathyroid hormone, parathyroid hormone (PTH), tested at 10^−8 M) Parathyroid hormone: SVSEIQLMHNLGKHLNSMERVEWLRKKLQDVHNFVALGAPLAPRDAGSQRPRKKEDNVLVESHEKSLGEADKADVNVLTKAKSQ", "values": [
      {"measurement": "SOST expression, factor alone", "setting": "SOST expression [1]", "result": "no effect"}
    ]}
  ]
}
